Experimental data published in US7572765B2, “Conformationally constrained parathyroid hormone (PTH) analogs” (The General Hospital Corporation, priority 2001, dated 2009).
Entries after “also recorded” stand apart in the source; their conditions may differ. Square brackets hold non-standard residues; d marks the D form. Peptide text beside a SMILES is read from it. hArg = N=C(N)NCCCC[C@H](N)C(=O)O; Aib = CC(C)(N)C(=O)O

Assays:
[1] = system: embryonic mouse metatarsals; assay: Inhibition of chondrocyte differentiation in embryonic mouse metatarsals (explant assay); type: cell-based; settings: for effect on mineralization / chondrocyte differentiation: E15.5 mouse metatarsals, 48 h treatment, PTH(1-34) 0.1 μM, [Aib^1,3,M]PTH(1-14) 1 μM, native PTH(1-14) 2 μM; for expression of the collagen X gene (mRNA in situ hybridization): explanted metatarsals, data not shown
Method: Inhibition of Chondrocyte Differentiation in Embryonic Mouse Metatarsals. Metatarsals from embryonic day (E) 15.5 mouse embryos were excised and cultured in a 37° C. humidified incubator (5% CO2) in serum -free αXMEM media in 24 well plates. Sixteen hours later, a PTH analog or vehicle was added, and the samples were incubated for an additional 48 h in 37° C. with peptide or vehicle added again at the 24 h time point. At the end of the 64 h incubation period, the samples were fixed with 10% formalin/phosphate-buffered saline, then directly visualized on a dissecting microscope using white light. Sections were processed for in-situ hybridization analysis using ^35S-labeled riboprobes specific for collagen type X mRNA, a developmental marker gene expressed only in hypertrophic chrondrocytes of the growth plate.
Whether or not [Aib^1,3,M]PTH(1-14) activity could be detected in a more intact bone system was studied in an explant assay. An explant assay utilized cartilaginous metatarsal rudiments isolated from E15.5mouse embryos and subsequently cultured in multi-well plates containing serum-free media. A PTH peptide analog or vehicle control, was added to the culture 16 h after explantion, then again at 24 h. The incubation was terminated 24 h later for a total of 48 h of treatment over a 64 h period. In the absence of PTH, chondrocyte differentation occurred, such that by the end of the experiment, dense mineralization was apparent at the bone's mid-section (FIG. 5A). […] These inhibitory effects were consistent with the known capacity of PTHRP to retard chondrocyte differentiation in the growth plate cartilage of developing long bones (Pellegrini, M., et al., Biochemistry 37:12737-12743 (1998)).

[2] = target: T1, wild-type human P1R (hP1R-WT) (Homo sapiens, UniProt Q03431); assay: Competition binding in COS-7 cells expressing hP1R-WT
T1 construct: expressed in transfected cells; host or cells: COS-7 (transient, FuGENE 6)
T1 sequence (Q03431 27-593): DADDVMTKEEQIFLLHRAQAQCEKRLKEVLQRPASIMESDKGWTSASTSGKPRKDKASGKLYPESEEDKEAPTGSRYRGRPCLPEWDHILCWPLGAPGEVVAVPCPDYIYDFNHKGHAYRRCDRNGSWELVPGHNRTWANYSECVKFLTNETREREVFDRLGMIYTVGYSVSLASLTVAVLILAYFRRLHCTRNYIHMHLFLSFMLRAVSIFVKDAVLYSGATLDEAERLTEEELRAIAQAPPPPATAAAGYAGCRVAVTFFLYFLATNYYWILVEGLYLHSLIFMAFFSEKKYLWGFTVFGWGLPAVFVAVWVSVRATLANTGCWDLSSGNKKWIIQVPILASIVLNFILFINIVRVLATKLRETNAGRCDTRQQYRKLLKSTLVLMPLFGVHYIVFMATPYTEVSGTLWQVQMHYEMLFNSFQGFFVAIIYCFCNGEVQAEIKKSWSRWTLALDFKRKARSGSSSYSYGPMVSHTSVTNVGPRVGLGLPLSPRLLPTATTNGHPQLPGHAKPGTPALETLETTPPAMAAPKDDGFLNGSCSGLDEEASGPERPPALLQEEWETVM
Method: Cell Culture. The cell line HKRK-B28 (Takasu, H., et al., J. Bone Miner. Res. 14:11-20 (1999)) was derived from the porcine kidney cell line, LLC-PK1 by stable transfection with plasmid DNA encoding the human P1R and expresses ˜280,000 receptors per cell. These cells, as well as COS-7 cells and SaOS-2-B10 cells, were cultured at […] in T-75 flasks ([…]) in Dulbecco's modified Eagle's medium (DMEM) supplemented with fetal bovine serum (10%), penicillin G (20 units/ml), streptomycin sulfate (20 μg/ml) and amphotericin B (0.05 μg/ml) in a humidified atmosphere containing 5% CO2. Stock solutions of EGTA/trypsin and antibiotics were from GIBCO; fetal bovine serum was from Hyclone Laboratories (Logan, Utah). COS-7 cells sub-cultured in 24-well plates were transfected with plasmid DNA (200 ng per well) encoding the wild-type human P1R or truncated human P1R deleted for residues (24-181) (Shimizu, M., et al., J. Biol. Chem. 275:21836-21843 (2000)) that was purified by cesium chloride/ethidium bromide density gradient centrifugation, and FuGENE 6 transfection reagent (Roche Indianapolis Ind.) according to the manufacturer's recommended procedure. All cells, in 24-well plates, were treated with fresh media and shifted to 33° C. for 12 to 24 h prior to assay.
Competition Binding. Binding reactions were performed with HKRK-B28 cells or in COS-7 cells in 24-well plates. The cells were rinsed with 0.5 mL of binding buffer, and then treated successively with 100 μL binding buffer, 100 μL of binding buffer containing various amounts of unlabeled competitor ligand, and 100 μL of binding buffer containing ca. 100,000 cpm of ^125I-[M]PTH(1-21) or ^125I-[Aib^1,3,M]PTH(1-21)} (ca. 26 fmol; final volume=300 μL). Incubations were 4 to 6 h at 4° C., at which time near equilibrium conditions were attained. Cells were then placed on ice, the binding medium was removed, and the monolayer was rinsed three times with 0.5 mL of cold binding buffer. The cells were subsequently lysed with 0.5 mL […] and counted for radioactivity. For each tracer and in each experiment, the non-specific binding was determined as the radioactivity that bound in the presence of the same unlabeled peptide at a concentration of 1 μM, and was ˜1% of total radioactivity added for each tracer. The maximum specific binding (B0) was the total radioactivity bound in the absence of competing ligand, corrected for nonspecific binding, and for each tracer, ranged from 8% to 20% of the total radioactivity added. Nonlinear regression was used to calculate binding IC50 values (see below). Scatchard transformations of homologous competition binding data derived from studies with 26 fmol of ^125I-[Aib^1,3,M]PTH(1-21) were employed for estimations of apparent equilibrium dissociation constant (kDapps) and total number of ligand binding sites (Bmax), assuming a single class of binding sites and equal affinities of the iodinated and non iodinated ligand.
Data Calculation. Calculations were performed using Microsoft® Excel. Nonlinear regression analyses of binding and cAMP dose-response data were performed using the four-parameter equation: yp=Min+[(Max−Min)/(1+(IC50/x)^slope)]. […] Differences between paired data sets were statistically evaluated using a one-tailed Student's t-test, assuming unequal variances for the two sets. […]

[3] = COS-7 cells, hP1R-WT, tracer 125I-[Aib^1,3,M]PTH(1-21), N.B. = no inhibition of tracer binding

| Molecule | effect on mineralization / chondrocyte differentiation [1] | expression of the collagen X gene (mRNA in situ hybridization) [1] | Binding IC50 [2, 3] | IC50 [2, 3] | binding affinity, fold stronger than [M]PTH(1-14) ([2]; P1R-WT) |
| --- | --- | --- | --- | --- | --- |
| CCCC[C@H](NC(=O)[C@H](CCCNC(=N)N)NC(=O)[C@H](CCC(=O)O)NC(=O)[C@@H](NC(=O)[C@H](CO)NC(=O)[C@H](C)NC(=O)[C@H](CC(C)C)NC(=O)[C@H](Cc1c[nH]cn1)NC(=O)[C@H](CCCCN)NC(=O)CNC(=O)[C@H](CC(C)C)NC(=O)[C@H](CC(N)=O)NC(=O)[C@H](Cc1c[nH]cn1)NC(=O)[C@H](CCCC)NC(=O)[C@H](CC(C)C)NC(=O)[C@H](CCC(N)=O)NC(=O)[C@@H](NC(=O)[C@H](CCC(=O)O)NC(=O)[C@H](CO)NC(=O)[C@@H](NC(=O)[C@H](C)N)C(C)C)[C@@H](C)CC)C(C)C)C(=O)N[C@@H](CCC(N)=O)C(=O)N[C@@H](Cc1c[nH]c2ccccc12)C(=O)N[C@@H](CC(C)C)C(=O)N[C@@H](CCCNC(=N)N)C(=O)N[C@@H](CCCCN)C(=O)N[C@@H](CCCCN)C(=O)N[C@@H](CC(C)C)C(=O)N[C@@H](CCC(N)=O)C(=O)N[C@@H](CC(=O)O)C(=O)N[C@H](C(=O)N[C@@H](Cc1c[nH]cn1)C(=O)N[C@@H](CC(N)=O)C(=O)N[C@@H](Cc1ccc(O)cc1)C(N)=O)C(C)C [PTH(1-34), [Nle^8,21, Tyr^34]PTH(1-34)amide, reference compound] | no mineralization was observed; also recorded: inhibited mineralization | inhibited expression of the collagen X gene | – | – | – |
| CC[C@H](C)[C@H](NC(=O)[C@H](CCC(=O)O)NC(=O)C(C)(C)NC(=O)[C@@H](NC(=O)C(C)(C)N)C(C)C)C(=O)N[C@@H](CCC(N)=O)C(=O)N[C@@H](CC(C)C)C(=O)N[C@@H](CCSC)C(=O)N[C@@H](Cc1c[nH]cn1)C(=O)N[C@@H](CCC(N)=O)C(N)=O [[Aib^1,3,M]PTH(1-10), [Aib^1,3,Gln^10]PTH(1-10)] (H-[Aib]V[Aib]EIQLMHQ-NH2) | – | – | N.B. | – | – |
| CC[C@H](C)[C@H](NC(=O)[C@H](CCC(=O)O)NC(=O)C(C)(C)NC(=O)[C@@H](NC(=O)C(C)(C)N)C(C)C)C(=O)N[C@@H](CCC(N)=O)C(=O)N[C@@H](CC(C)C)C(=O)N[C@@H](CCSC)C(=O)N[C@@H](Cc1c[nH]cn1)C(=O)N[C@@H](CCC(N)=O)C(=O)N[C@@H](CCCCNC(=N)N)C(N)=O [[Aib^1,3,M]PTH(1-11), AibValAibGluIleGlnLeuMetHisGlnHar] (H-[Aib]V[Aib]EIQLMHQ[hArg]-NH2) | – | – | – | 16 µM | – |
| CC[C@H](C)[C@H](NC(=O)[C@H](CCC(=O)O)NC(=O)C(C)(C)NC(=O)[C@@H](NC(=O)C(C)(C)N)C(C)C)C(=O)N[C@@H](CCC(N)=O)C(=O)N[C@@H](CC(C)C)C(=O)N[C@@H](CCSC)C(=O)N[C@@H](Cc1c[nH]cn1)C(=O)N[C@@H](CCC(N)=O)C(=O)N[C@@H](CCCCNC(=N)N)C(=O)N[C@@H](C)C(=O)N[C@@H](CCCCN)C(=O)N[C@@H](Cc1c[nH]c2ccccc12)C(N)=O [[Aib^1,3,M]PTH(1-14), AibValAibGluIleGlnLeuMetHisGlnHarAlaLysTrp] (H-[Aib]V[Aib]EIQLMHQ[hArg]AKW-NH2) | no mineralization was observed; also recorded: inhibited mineralization | inhibited expression of the collagen X gene | – | – | ~10 fold |
| H-AVSEIQLMHNLGKH-NH2 [PTH(1-14), reference compound] | no effect could be detected; also recorded: mineralization can be detected | – | N.B. | – | – |
